Calls of active or inactive are those of the source. The calls are words filed in the database; no cut-off is given here.

We go through one molecule from ChEMBL document CHEMBL3864133, “Discovery of a Potent and Selective in Vivo Probe (GNE-272) for the Bromodomains of CBP/EP300” (J Med Chem, 2016).

One series has as its system HL-60. In words: Antiproliferative activity against human HL60 cells measured after 6 days by CellTiter-Glo assay. It is filed as functional, cell-based. (ATP-based viability assays read luminescence as a measure of living cells.)
Another series concerns the target Cytochrome P450 2C9 (Homo sapiens, UniProt P11712). In words: Inhibition of CYP2C9 in human liver microsomes assessed as formation of 7-hydroxywarfarin from warfarin measured after 30 mins in presence of NADPH by LC-MS/MS analysis. The format is ADME. Particulars: 0.5 h. A general note: Microsomes from liver hold many membrane-bound enzymes, among them those of drug oxidation.

A short description of series [1]: Oral bioavailability in nu/nu mouse at 100 mg/kg by LC-MS/MS analysis. Particulars: in vivo. The format is ADME, organism-based.
The target in series [2] is T1, CREB-binding protein/Histone acetyltransferase p300 (Homo sapiens, UniProt Q09472+Q92793). The series is described as follows: Inhibition of CBP/EP300 in human MOLM16 cells assessed as decrease in MYC expression at 0.1 to 1 uM measured after 4 hrs Western blot analysis. It is filed as cell-based. A general note: In western blotting, separated proteins are transferred to a membrane and probed.

For the next series, the system named is LP-1. In words: Antiproliferative activity against human LP-1 cells measured after 6 days by CellTiter-Glo assay. The format is functional, cell-based.
A short description of series [3]: Decrease in MYC mRNA expression in tumor of SCID beige mouse xenografted with human MOLM16 cells at 30 mg/kg, po administered twice daily via gavage as single dose measured after 2 hrs by RT-PCR analysis relative to control. The format is functional, organism-based.
The target in series [4] is T1, CREB-binding protein/Histone acetyltransferase p300. The series is described as follows: Inhibition of CBP/EP300 in human MOLM16 cells assessed as suppression of MYB expression at 5 uM measured after 4 hrs by RT-PCR analysis relative to DMSO control. The format is cell-based.
The target is the same in series [5]. The series is described as follows: Inhibition of CBP/EP300 in human MOLM16 cells assessed as suppression of BCL2 expression at 5 uM measured after 4 hrs by RT-PCR analysis relative to DMSO control. The format is cell-based.
The next series relates to DOHH-2. The series is described as follows: Antiproliferative activity against human DOHH2 cells measured after 6 days by CellTiter-Glo assay. The format is functional, cell-based.
Series [6] is described as follows: Volume of distribution at steady state in nu/nu mouse at 1 mg/kg, iv or 100 mg/kg, po by LC-MS/MS analysis. The format is ADME, organism-based. Particulars: in vivo, read-out: Vdss.
Another series deals with Mus musculus. In words: Toxicity in SCID beige mouse xenografted with human MOLM16 cells assessed as body weight loss at 12.5 to 50 mg/kg, po BID administered through gavage for 21 days. The format is organism-based. Particulars: in vivo.
The test system of a further series is EJM. In words: Antiproliferative activity against human EJM cells measured after 6 days by CellTiter-Glo assay. It is filed as functional, cell-based.

T1 sequence (Q09472 whole entry, looked up): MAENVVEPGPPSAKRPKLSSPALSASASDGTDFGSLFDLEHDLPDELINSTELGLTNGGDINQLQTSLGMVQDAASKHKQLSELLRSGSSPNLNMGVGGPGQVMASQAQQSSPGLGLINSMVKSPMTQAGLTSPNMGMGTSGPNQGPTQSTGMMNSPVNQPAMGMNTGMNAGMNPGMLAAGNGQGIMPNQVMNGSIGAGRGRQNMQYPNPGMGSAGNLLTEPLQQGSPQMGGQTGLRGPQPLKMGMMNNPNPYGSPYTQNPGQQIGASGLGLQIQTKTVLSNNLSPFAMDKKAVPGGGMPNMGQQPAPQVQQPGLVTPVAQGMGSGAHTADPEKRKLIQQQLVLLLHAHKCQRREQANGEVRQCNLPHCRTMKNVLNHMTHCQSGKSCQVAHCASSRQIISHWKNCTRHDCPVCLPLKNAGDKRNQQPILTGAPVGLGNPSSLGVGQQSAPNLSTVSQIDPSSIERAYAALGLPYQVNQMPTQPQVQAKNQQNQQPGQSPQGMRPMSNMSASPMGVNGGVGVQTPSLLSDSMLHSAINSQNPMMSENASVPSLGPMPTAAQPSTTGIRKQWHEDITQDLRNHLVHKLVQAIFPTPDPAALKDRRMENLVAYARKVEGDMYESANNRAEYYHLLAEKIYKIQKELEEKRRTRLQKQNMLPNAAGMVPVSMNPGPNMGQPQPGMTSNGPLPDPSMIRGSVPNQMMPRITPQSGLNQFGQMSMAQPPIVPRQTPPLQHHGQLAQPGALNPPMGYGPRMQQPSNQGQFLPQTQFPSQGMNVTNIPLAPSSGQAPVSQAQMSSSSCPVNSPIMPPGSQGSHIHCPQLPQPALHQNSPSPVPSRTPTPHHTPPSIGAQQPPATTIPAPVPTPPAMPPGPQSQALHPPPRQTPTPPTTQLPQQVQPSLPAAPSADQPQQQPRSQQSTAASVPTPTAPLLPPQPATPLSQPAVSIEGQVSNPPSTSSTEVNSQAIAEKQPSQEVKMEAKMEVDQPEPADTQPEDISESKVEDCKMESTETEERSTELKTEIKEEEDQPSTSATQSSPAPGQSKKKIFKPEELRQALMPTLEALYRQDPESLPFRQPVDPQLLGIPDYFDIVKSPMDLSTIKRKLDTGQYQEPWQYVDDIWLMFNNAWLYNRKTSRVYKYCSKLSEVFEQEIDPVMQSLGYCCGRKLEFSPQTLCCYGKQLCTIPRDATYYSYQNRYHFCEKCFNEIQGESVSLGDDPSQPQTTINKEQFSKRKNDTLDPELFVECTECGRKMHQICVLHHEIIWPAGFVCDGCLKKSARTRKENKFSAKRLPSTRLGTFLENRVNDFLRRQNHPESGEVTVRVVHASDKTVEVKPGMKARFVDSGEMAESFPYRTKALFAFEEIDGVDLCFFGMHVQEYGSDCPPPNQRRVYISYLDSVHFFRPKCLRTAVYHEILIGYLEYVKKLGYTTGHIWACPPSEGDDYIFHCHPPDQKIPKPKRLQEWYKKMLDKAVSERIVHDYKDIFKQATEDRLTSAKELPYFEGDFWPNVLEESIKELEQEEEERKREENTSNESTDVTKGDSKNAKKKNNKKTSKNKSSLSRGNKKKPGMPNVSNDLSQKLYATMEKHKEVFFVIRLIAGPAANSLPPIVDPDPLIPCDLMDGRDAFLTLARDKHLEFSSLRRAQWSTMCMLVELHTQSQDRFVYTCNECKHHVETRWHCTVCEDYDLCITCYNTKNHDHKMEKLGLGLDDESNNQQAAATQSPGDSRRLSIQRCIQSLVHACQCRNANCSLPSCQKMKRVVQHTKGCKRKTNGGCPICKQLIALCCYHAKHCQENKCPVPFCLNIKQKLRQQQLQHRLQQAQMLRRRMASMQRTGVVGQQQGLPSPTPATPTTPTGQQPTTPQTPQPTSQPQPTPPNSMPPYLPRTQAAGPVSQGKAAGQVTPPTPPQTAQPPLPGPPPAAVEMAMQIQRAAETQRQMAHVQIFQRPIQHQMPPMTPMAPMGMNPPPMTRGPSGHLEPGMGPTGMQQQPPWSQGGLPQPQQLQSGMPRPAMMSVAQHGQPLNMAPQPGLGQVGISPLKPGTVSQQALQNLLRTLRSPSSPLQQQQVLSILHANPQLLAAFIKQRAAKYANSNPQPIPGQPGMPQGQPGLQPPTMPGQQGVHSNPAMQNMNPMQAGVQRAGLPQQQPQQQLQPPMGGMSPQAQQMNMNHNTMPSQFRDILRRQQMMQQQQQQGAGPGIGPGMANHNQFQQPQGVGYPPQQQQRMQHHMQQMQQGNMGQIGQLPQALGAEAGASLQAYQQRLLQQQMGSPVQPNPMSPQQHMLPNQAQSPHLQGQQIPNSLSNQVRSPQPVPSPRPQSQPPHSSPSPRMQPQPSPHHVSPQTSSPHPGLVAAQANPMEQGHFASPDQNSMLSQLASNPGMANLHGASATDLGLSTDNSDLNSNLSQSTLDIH
T1 sequence (Q92793 whole entry, looked up): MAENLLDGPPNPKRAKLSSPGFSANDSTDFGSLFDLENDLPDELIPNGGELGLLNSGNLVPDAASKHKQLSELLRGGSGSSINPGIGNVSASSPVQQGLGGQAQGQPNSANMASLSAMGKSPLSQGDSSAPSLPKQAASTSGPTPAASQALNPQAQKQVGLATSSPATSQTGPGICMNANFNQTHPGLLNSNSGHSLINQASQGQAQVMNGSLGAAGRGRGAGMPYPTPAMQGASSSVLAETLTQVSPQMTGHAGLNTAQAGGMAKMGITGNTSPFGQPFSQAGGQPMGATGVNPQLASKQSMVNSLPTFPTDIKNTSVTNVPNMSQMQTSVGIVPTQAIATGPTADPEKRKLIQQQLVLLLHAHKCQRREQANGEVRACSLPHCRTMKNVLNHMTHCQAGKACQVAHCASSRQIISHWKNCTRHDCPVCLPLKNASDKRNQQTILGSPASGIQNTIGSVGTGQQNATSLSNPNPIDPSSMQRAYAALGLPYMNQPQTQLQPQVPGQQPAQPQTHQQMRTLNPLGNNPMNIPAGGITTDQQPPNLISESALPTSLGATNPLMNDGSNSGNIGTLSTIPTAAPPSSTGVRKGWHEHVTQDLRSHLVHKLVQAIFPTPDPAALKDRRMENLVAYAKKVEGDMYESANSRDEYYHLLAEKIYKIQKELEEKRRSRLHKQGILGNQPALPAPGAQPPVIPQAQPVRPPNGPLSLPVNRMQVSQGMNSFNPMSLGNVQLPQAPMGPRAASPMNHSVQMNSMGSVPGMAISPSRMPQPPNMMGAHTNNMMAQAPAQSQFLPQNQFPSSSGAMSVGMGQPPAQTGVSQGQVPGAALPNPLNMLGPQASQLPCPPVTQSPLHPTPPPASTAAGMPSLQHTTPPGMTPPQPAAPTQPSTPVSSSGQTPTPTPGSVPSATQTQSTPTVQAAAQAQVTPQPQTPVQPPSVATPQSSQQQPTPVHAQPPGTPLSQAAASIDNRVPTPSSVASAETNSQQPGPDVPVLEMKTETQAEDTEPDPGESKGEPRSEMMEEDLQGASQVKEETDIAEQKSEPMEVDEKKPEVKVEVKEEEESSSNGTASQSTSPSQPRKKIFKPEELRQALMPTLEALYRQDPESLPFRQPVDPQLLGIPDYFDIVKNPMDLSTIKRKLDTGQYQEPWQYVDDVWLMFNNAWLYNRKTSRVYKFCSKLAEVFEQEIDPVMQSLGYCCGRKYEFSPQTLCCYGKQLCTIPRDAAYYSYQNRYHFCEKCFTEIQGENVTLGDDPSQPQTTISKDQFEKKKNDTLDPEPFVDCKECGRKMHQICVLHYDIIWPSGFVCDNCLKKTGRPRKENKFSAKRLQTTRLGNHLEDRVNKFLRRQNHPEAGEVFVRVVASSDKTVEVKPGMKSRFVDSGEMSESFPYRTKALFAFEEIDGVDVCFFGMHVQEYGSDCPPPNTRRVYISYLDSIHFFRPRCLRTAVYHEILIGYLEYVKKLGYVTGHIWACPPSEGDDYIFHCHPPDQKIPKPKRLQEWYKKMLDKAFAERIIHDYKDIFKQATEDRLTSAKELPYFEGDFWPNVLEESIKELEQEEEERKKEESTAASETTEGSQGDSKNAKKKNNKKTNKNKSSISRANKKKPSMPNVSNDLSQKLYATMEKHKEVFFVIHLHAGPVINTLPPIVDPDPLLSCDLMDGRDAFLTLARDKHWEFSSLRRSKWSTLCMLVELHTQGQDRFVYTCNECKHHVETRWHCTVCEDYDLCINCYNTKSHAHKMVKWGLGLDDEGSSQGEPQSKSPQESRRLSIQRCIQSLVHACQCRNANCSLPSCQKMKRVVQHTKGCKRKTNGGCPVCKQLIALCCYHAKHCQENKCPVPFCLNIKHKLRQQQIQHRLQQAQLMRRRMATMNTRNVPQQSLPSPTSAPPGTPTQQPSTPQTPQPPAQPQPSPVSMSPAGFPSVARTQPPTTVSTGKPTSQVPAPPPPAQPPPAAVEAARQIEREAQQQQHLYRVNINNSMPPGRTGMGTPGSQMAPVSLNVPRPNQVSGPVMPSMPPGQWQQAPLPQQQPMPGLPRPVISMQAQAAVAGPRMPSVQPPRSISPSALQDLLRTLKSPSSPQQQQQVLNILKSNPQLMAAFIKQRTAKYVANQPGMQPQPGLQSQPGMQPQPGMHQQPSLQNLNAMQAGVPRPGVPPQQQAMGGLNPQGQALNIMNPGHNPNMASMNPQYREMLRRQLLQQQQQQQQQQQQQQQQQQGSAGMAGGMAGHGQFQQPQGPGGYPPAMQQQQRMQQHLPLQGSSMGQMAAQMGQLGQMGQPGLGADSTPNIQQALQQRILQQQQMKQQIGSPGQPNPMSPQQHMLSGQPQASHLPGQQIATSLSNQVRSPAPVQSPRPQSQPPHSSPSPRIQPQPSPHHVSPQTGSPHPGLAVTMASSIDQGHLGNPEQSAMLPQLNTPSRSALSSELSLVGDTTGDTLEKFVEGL

`CC(=O)N1CCc2c(c(Nc3ccc(-c4cnn(C)c4)cc3F)nn2[C@@H]2CCOC2)C1`: the outcome in the series on HL-60, with LP-1, in the series with DOHH-2 and with EJM was Active. The INH at Cytochrome P450 2C9 was above 10 µM. The molecule further came in with a bioavailability in series [1] of 100%. The inhibition entry in series [2], in series [4] and in series [5] was “Active” throughout. In addition, the inhibition in series [3] stood at 78%. Further, the Vd in [6] worked out at 1.5 L/kg. The Activity in the series with Mus musculus stood at 7.4%.

As usually defined, the bioavailability is dose-corrected exposure relative to a reference, in per cent. Lower therefore signals little systemic uptake. Broadly, the inhibition is the share of the control response that was lost under treatment.
